Source: patent publication US9266859B2, “Azetidinyloxyphenylpyrrolidine compounds” (Eli Lilly and Company, priority 2013, dated 2016)
pIC50: −log10 of the molar value. “And” between values parts separate entries of the source, which are not always exact repeats. Equal values may be shown once.

Legend:
PDE4B = target: T1, PDE4B (Homo sapiens, UniProt Q07343); test: PDE4 Inhibition In Vitro Assay; type: biochemical; settings: human recombinant PDE4B
T1 construct: made in house; host or cells: Saccharomyces cerevisiae lacking endogenous PDEs
Protocol: The phosphodiesterase assays are performed essentially according to the method described in Loughney, K., et al., J. Biol. Chem., 271, pp. 796-806 (1996). PDE4A, PDE4B, PDE4C, PDE4D, and PDE5 human recombinant proteins are expressed and purified from Saccharomyes cerevisiae that lack endogenous PDEs. The phosphodiesterase enzymes are diluted on ice with enzyme dilution buffer (25 mM Tris, pH 7.5, 0.1 mM DTT, 5.0 mM MgCl2, 100 mM NaCl, 5 μM ZnSO4, 100 μg/mL BSA) to give approximately 20%-40% hydrolysis of cyclic nucleotide monophosphate (cNMP) in the absence of inhibitor.
The stock solution of test compounds are diluted on the Beckman BioMek™ 1000 workstation to span a concentration range of 4.5 log units in 0.5 log increments. The DMSO concentration in the final test system is 2.5% for all PDE enzymes. The final test compound concentration tested ranged from 0.03 nM to 1 μM.
The assay is performed in a 96-well microtiter plate format on a Beckman BioMek™ 1000 robotic station. […] The amount of radioactivity released as phosphate is determined in a Wallac MicroBeta Plate™ counter.
The reduced data at each concentration of inhibitor is analyzed using a four-, three- or two-parameter logistic dose response model to provide an IC50 value.

[1] = system: chronic cyclophosphamide (CYP)-induced overactive bladder mouse model; test: Overactive Bladder In Vivo Model (chronic cyclophosphamide-induced)
Protocol: The in vivo effect of PDE4 inhibitors on OAB is studied with a chronic cyclophosphamide (CYP)-induced overactive bladder mouse model adapted from Boudes et al., Neurourol. Urodynam. 2011. In a typical study, female C57/Bl6 mice, approximately 20 grams in body weight (Harlan Laboratories, Inc., Indianapolis, Ind.) are used. Mice are randomized by body weight into groups one day before the start of the study. Mice are individually housed and maintained on a 12 hour light/dark cycle at 22° C. with ad lib access to food (TD 2014 with 0.72% Ca and 0.61% P, 990 IU/g D3, Teklad™, Madison, Wis.) and water. Animals receive cyclophosphamide (dissolved in physiological saline) i.p. administration at 100 mg/kg on days 1, 3, 5, and 7 to chronically induce OAB. The vehicle control group received daily vehicle (HEC 1%/Tween 80 0.25%/Antifoam 0.05%) administered orally. All other groups are administered orally tadalafil at 10 mg/kg in combination with 0.1, 1.0, or 10.0 mg/kg of test compound daily at a volume of 200 μl/mouse. On day 8, mice are housed in urine collection chambers with a filter paper placed underneath chamber. Prior to urine collection, gavages of 1 ml water are given to each mouse. Urine is collected from 6 pm to 10 pm (i.e. for 4 hrs). Gel cups (DietGel™76A) are supplied as water source during the 4 hour period. The filter paper is changed every hour. Voiding frequency and volume/void are calculated using Image J software (NIH). Data are statistically analyzed with JMP8® software (Cary, N.C.).
All treatment groups receive a fixed dose of 10 mg/kg of tadalafil.

[2] = Example 2 0.1, 1.0, 10.0 mg/kg given with tadalafil 10 mg/kg

T1 sequence (Q07343 whole entry): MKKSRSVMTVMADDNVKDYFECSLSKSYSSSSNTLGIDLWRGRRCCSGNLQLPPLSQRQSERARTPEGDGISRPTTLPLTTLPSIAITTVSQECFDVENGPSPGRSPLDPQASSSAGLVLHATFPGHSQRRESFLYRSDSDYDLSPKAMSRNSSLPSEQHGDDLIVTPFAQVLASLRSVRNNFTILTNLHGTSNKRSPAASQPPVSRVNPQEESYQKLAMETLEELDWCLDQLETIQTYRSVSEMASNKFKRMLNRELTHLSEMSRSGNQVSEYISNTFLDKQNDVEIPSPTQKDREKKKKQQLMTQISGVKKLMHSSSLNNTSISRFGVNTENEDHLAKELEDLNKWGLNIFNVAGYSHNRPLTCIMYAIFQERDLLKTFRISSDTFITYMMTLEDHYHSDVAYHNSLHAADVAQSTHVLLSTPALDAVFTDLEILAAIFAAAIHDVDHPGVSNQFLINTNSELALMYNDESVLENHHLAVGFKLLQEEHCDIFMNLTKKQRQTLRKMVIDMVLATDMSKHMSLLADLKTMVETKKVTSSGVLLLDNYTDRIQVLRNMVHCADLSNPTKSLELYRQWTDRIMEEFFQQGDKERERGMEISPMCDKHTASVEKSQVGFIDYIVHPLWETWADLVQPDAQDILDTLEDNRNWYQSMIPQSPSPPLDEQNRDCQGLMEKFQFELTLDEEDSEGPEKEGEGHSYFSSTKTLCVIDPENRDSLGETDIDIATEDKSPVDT

pIC50 (PDE4B) | Compound | Mean Voiding Frequency ([1]; Example 2 0.1 mg/kg + tadalafil 10 mg/kg, oral daily, day 8, CYP-treated female C57/Bl6 mice, vehicle 16.5) [no./4 hr] | effect on urinary frequency (in words) [1, 2] | effect on volume/void (in words) [1, 2]
> 8.00 | COc1ccc([C@@H]2CN(C(=O)[C@@H](O)CO)C[C@@]2(C)[C@@H](C)O)cc1OC1CN(c2ccccn2)C1 [Example 1, (2S)-3-[(3S,4S)-3-[(1R)-1-hydroxyethyl]-4-{4-methoxy-3-[(1-pyridin-2-ylazetidin-3-yl)oxy]phenyl}-3-methylpyrrolidin-1-yl]-3-oxopropane-1,2-diol] |  |  | 
> 8.00 and 9.24 | COc1ccc([C@@H]2CN(C(=O)[C@@H](O)CO)C[C@@]2(C)[C@@H](C)O)cc1OC1CN(c2ccc(C)cn2)C1 [Example 2, (2S)-3-[(3S,4S)-3-[(1R)-1-hydroxyethyl]-4-(4-methoxy-3-{[1-(5-methylpyridin-2-yl)azetidin-3-yl]oxy}phenyl)-3-methylpyrrolidin-1-yl]-3-oxopropane-1,2-diol] | 10 | significantly reduces urinary frequency in a dose-dependent fashion | increases of volume/void are also observed in a dose-dependent fashion
